From the supplement of paper PMC10307832

Tests used:
Assay in all cases: relative viability (nuclei count vs DMSO), 5 days (fraction); higher = more cells survive
[1] = compound: Cc1nc(NC(=O)N2CCC[C@H]2C(N)=O)sc1-c1ccnc(C(C)(C)C(F)(F)F)c1 [Alpelisib] + N=C(N)NC(=N)NCCc1ccccc1 [Phenformin] (partner 250 µM)
How it was run: (§1)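 Lung cancer cell lines in 1536-well plates were dosed by pin tool the day after seeding, either with one drug alone or with a fixed anchor-drug dose plus five library-drug doses (not always all listed) in √10 steps. After 5 days, cells were fixed and their nuclei stained in one step (final 0.05% Triton X-100, 1% formaldehyde, 1 ug/ml Hoechst), then counted on 4× images. Relative viability is the nuclei count in treated wells divided by that in vehicle wells. Values are medians of duplicate plates.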

[2] = compound: Cc1nc(NC(=O)N2CCC[C@H]2C(N)=O)sc1-c1ccnc(C(C)(C)C(F)(F)F)c1 [Alpelisib] + CC(C)C[C@H](NC(=O)[C@H](Cc1ccccc1)NC(=O)c1cnccn1)B(O)O [Bortezomib] (partner 0.002 µM)
How it was run: as §1

[3] = compound: CCCS(=O)(=O)Nc1ccc(F)c(C(=O)c2c[nH]c3ncc(-c4ccc(Cl)cc4)cc23)c1F [Vemurafenib] + C[C@@H](Oc1cc(-c2cnn(C3CCNCC3)c2)cnc1N)c1c(Cl)ccc(F)c1Cl [Crizotinib] (partner 1 µM)
How it was run: as §1

[4] = compound: CCCS(=O)(=O)Nc1ccc(F)c(C(=O)c2c[nH]c3ncc(-c4ccc(Cl)cc4)cc23)c1F [Vemurafenib] + O=C(c1cc(Cc2n[nH]c(=O)c3ccccc23)ccc1F)N1CCN(C(=O)C2CC2)CC1 [Olaparib] (partner 8 µM)
How it was run: as §1

Cell Line | relative viability ([1]; first compound 0.04 µM) | relative viability ([1]; first compound 0.1265 µM) | relative viability ([1]; first compound 0.4 µM) | relative viability ([1]; first compound 1.265 µM) | relative viability ([1]; first compound 4 µM) | relative viability ([2]; first compound 0.04 µM) | relative viability ([2]; first compound 0.1265 µM) | relative viability ([2]; first compound 0.4 µM) | relative viability ([2]; first compound 1.265 µM) | relative viability ([2]; first compound 4 µM) | relative viability ([3]; first compound 0.03162 µM) | relative viability ([3]; first compound 0.1 µM) | relative viability ([3]; first compound 0.3162 µM) | relative viability ([3]; first compound 1 µM) | relative viability ([4]; first compound 0.03162 µM) | relative viability ([4]; first compound 0.1 µM) | relative viability ([4]; first compound 0.3162 µM) | relative viability ([4]; first compound 1 µM)
NCI-H23 | 0.779 | 0.702 | 0.783 | 0.605 | 0.506 | 0.941 | 0.941 | 0.773 | 0.559 | 0.766 | 0.468 | 0.541 | 0.654 | 0.465 | 0.309 | 0.326 | 0.295 | 0.343
NCI-H322M | 0.74 | 0.674 | 0.736 | 0.558 | 0.55 | 1.23 | 1.06 | 1.1 | 1.1 | 0.857 | 0.934 |  | 1.23 | 0.716 | 0.728 |  | 0.93 | 0.726
NCI-H441 | 0.955 | 0.749 | 0.832 | 0.469 | 0.45 | 0.631 | 0.45 | 0.531 | 0.329 | 0.385 | 0.705 | 0.684 | 0.743 | 0.616 | 0.512 | 0.597 | 0.556 | 0.536
NCI-H460 | 0.484 | 0.526 | 0.554 | 0.447 | 0.142 | 1 | 0.939 | 1.13 | 0.646 | 0.366 | 0.808 | 0.809 | 0.692 | 0.942 | 0.44 | 0.408 |  | 0.39
NCI-H520 | 0.55 | 0.439 | 0.417 | 0.316 | 0.311 | 0.59 | 0.687 | 0.553 | 0.623 | 0.319 | 0.659 | 0.755 | 0.765 | 0.703 | 0.284 | 0.337 | 0.364 | 0.359
NCI-H596 | 0.669 | 0.709 | 0.695 | 0.421 | 0.329 | 1.17 | 0.801 | 1.15 | 0.666 | 0.44 | 0.97 | 1.01 | 0.992 | 1.09 | 0.742 | 0.657 | 0.63 | 0.719
NCI-H647 | 0.396 | 0.421 | 0.53 | 0.378 | 0.359 | 0.75 | 1.1 | 1.34 | 0.944 | 0.922 | 1.03 | 0.963 | 0.884 | 0.713 | 0.605 | 0.469 | 0.513 | 0.634
NCI-H650 | 0.469 | 0.429 | 0.534 | 0.349 | 0.369 | 0.728 | 0.563 | 0.881 | 0.573 | 0.58 | 0.705 | 0.72 | 0.418 | 0.581 | 0.385 | 0.368 | 0.305 | 0.378
NCI-H661 | 0.285 | 0.281 | 0.253 | 0.245 | 0.262 | 0.668 | 0.933 | 0.833 | 0.593 | 0.651 | 0.819 | 1.07 |  | 0.949 | 0.686 | 0.752 | 0.769 | 0.709
